Assay results from ChEMBL document CHEMBL3091344, “17(E)-picolinylidene androstane derivatives as potential inhibitors of prostate cancer cell growth: antiproliferative activity and molecular docking studies” (Bioorg Med Chem, 2013).
pIC50: −log10 of the molar value.

Legend:
MDA-MB-231 [1] = assay: Cytotoxicity against ER-negative human MDA-MB-231 cells assessed as growth inhibition after 48 hrs by SRB assay; assay type: functional, cell-based; settings: MDA-MB-231, 48 h
MRC5 [2] = assay: Cytotoxicity against human MRC5 cells assessed as growth inhibition after 48 hrs by SRB assay; assay type: cell-based; settings: MRC5, 48 h
PC-3 [3] = assay: Cytotoxicity against human PC3 cells assessed as growth inhibition after 48 hrs by SRB assay; assay type: functional, cell-based; settings: PC-3, 48 h
MCF7 [4] = assay: Cytotoxicity against ER-positive human MCF7 cells assessed as growth inhibition after 48 hrs by SRB assay; assay type: functional, cell-based; settings: MCF7, 48 h
MDA-MB-231 [5] = assay: Cytotoxicity against ER-negative human MDA-MB-231 cells assessed as growth inhibition after 48 hrs by MTT assay; assay type: functional, cell-based; settings: MDA-MB-231, 48 h
PC-3 [6] = assay: Cytotoxicity against human PC3 cells assessed as growth inhibition after 48 hrs by MTT assay; assay type: functional, cell-based; settings: PC-3, 48 h
HeLa = assay: Cytotoxicity against human HeLa cells assessed as growth inhibition after 48 hrs by MTT assay; assay type: functional, cell-based
MCF7 [7] = assay: Cytotoxicity against ER-positive human MCF7 cells assessed as growth inhibition after 48 hrs by MTT assay; assay type: functional, cell-based; settings: MCF7, 48 h
HT-29 = assay: Cytotoxicity against human HT-29 cells assessed as growth inhibition after 48 hrs by MTT assay; assay type: functional, cell-based; settings: HT-29, 48 h
MRC5 [8] = assay: Cytotoxicity against human MRC5 cells assessed as growth inhibition after 48 hrs by MTT assay; assay type: cell-based; settings: MRC5, 48 h

| Compound | pIC50 (MDA-MB-231 [1]) | pIC50 (MRC5 [2]) | pIC50 (PC-3 [3]) | pIC50 (MCF7 [4]) | pIC50 (MDA-MB-231 [5]) | pIC50 (PC-3 [6]) | pIC50 (HeLa) | pIC50 (MCF7 [7]) | pIC50 (HT-29) | pIC50 (MRC5 [8]) |
| --- | --- | --- | --- | --- | --- | --- | --- | --- | --- | --- |
| C[C@]12CCC(=O)C=C1CC[C@@H]1[C@@H]2CC[C@]2(C)/C(=C/c3ccccn3)CC[C@@H]12 | < 4.00 | < 4.00 | 4.89 | < 4.00 | – | – | – | – | – | – |
| C#CCC[C@@]1(C)C(=O)CC[C@@H]2[C@@H]1CC[C@@]1(C)[C@H]2CC[C@@]1(O)Cc1ccccn1 | – | – | – | – | < 4.00 | < 4.00 | < 4.00 | < 4.00 | 5.19 | < 4.00 |
| C[C@]12CC[C@H]3[C@@H](CC[C@@]4(O)C=CCC[C@]34C)[C@@H]1CC/C2=C\c1ccccn1 | – | – | – | – | < 4.00 | < 4.00 | 4.31 | < 4.00 | 4.24 | < 4.00 |
| C[C@]12CC[C@H]3[C@@H](CC[C@]45O[C@H]4C(=O)CC[C@]35C)[C@@H]1CC/C2=C\c1ccccn1 | – | – | – | – | 4.05 | 4.84 | – | 4.29 | – | < 4.00 |
| C[C@]12CC[C@H]3[C@@H](CC[C@@]4(O)C=CCC[C@]34C)[C@@H]1CC[C@@]2(O)Cc1ccccn1 | – | – | – | – | < 4.00 | < 4.00 | < 4.00 | < 4.00 | < 4.00 | < 4.00 |
| C[C@]12CC[C@H]3[C@@H](CC[C@]45O[C@H]4C(=O)CC[C@]35C)[C@@H]1CC[C@@]2(O)Cc1ccccn1 | – | – | – | – | 4.98 | 4.18 | – | < 4.00 | – | < 4.00 |
| C[C@]12CC/C(=N\N)C=C1CC[C@@H]1[C@@H]2CC[C@]2(C)/C(=C/c3ccccn3)CC[C@@H]12 | – | – | – | – | 4.77 | 5.23 | < 4.00 | 4.87 | 4.29 | < 4.00 |
| C[C@]12CC/C(=N\N)C=C1CC[C@@H]1[C@@H]2CC[C@@]2(C)[C@H]1CC[C@@]2(O)Cc1ccccn1 | – | – | – | – | 4.49 | < 4.00 | < 4.00 | 5.20 | < 4.00 | < 4.00 |
| C[C@]12CCC(=O)C=C1CC[C@@H]1[C@@H]2CC[C@@]2(C)[C@H]1CC[C@@]2(O)Cc1ccccn1 | < 4.00 | < 4.00 | < 4.00 | < 4.00 | – | – | – | – | – | – |
| C[C@]12CC[C@H](O)CC1=CC[C@@H]1[C@@H]2CC[C@]2(C)C(c3cccnc3)=CC[C@@H]12 [ABIRATERONE] | – | – | – | – | – | 5.03 | – | – | – | – |
| COc1cccc2c1C(=O)c1c(O)c3c(c(O)c1C2=O)C[C@@](O)(C(=O)CO)C[C@@H]3O[C@H]1C[C@H](N)[C@H](O)[C@H](C)O1 [DOXORUBICIN] | – | – | – | – | – | – | – | 6.12 | 6.49 | – |
| C[C@]12CCC(=O)C(O)=C1CC[C@@H]1[C@@H]2CC[C@]2(C)C(=O)CC[C@@H]12 [FORMESTANE] | – | – | – | – | – | – | – | < 4.00 | < 4.00 | < 4.00 |
